The values that follow come from ChEMBL document CHEMBL4052684, “A novel intestinal-restricted FXR agonist” (Bioorg Med Chem Lett, 2017).

By Papp A→B is commonly meant the apparent permeability from the apical to the basolateral side of a cell layer. What is called Papp B→A is the apparent permeability from the basolateral to the apical side of a cell layer. A word on the Kd: it is the equilibrium constant for the complex coming apart. A higher Kd goes with weaker binding. As usually defined, the efflux ratio is a quotient of directional permeabilities that is used to spot active efflux.

Data set [1] is described as follows: Solubility in DMSO/mineral oil medium. In kind it is physicochemical.
In data set [2] the target is T1, Bile acid receptor (Homo sapiens) (UniProt Q96RI1).
T1 sequence (whole entry): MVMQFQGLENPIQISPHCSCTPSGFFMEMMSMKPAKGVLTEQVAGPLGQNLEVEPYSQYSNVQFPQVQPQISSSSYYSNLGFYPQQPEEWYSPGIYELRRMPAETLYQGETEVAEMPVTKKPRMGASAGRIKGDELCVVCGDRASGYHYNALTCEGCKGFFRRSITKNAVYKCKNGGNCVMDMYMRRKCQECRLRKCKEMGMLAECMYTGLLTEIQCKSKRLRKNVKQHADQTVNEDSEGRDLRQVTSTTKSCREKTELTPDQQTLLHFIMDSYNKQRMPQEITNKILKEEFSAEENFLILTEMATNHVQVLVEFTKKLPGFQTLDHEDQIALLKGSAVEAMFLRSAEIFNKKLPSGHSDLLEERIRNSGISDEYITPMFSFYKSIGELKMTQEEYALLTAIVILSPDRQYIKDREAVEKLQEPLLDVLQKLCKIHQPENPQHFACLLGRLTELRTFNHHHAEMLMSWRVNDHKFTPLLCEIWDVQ
The data set is described as follows: Agonist activity at FXR in human Caco2 cells. The data set is classed as cell-based.

Another data set relates to Ileum. Nature of the data set: Drug accumulation in C57BL/6 mouse ileum at 100 mg/kg, ig for 5 days by LC-MS/MS method. To be noted: in vivo, po, 120 h. In kind it is ADME, organism-based.
Data set [3] relates to Mus musculus. The data set is described as follows: Increase in FXR mRNA expression in C57BL/6 mouse ileum at 100 mg/kg, ig for 5 days by PCR method. In kind it is functional, organism-based.
Data set [4] is described as follows: Drug uptake in human Caco2 cells at 20 and 50 uM by LC-MS/MS method. In kind it is ADME, cell-based. To be noted: Caco-2.
Data set [5] concerns Mus musculus. Nature of the data set: Induction of FXR activation in C57BL/6 mouse ileum assessed as reduction in FXR-mediated Cyp7A1 mRNA expression at 100 mg/kg, ig for 5 days by PCR method. In kind it is functional, organism-based.
Data set [6] has as its system Mus musculus. The data set is described as follows: Effect on FXR mRNA expression in C57BL/6 mouse jejunum at 100 mg/kg, ig for 5 days by PCR method. The data set is classed as ADME, organism-based. The conditions noted are these: in vivo, po, 120 h.
Data set [7] concerns Mus musculus. The data set is described as follows: Effect on FXR activation in C57BL/6 mouse non ileum part of intestine assessed as increase in FXR-mediated Shp mRNA expression at 100 mg/kg, ig for 5 days by PCR method. In kind it is organism-based. The conditions noted are these: in vivo, po, 120 h.
Data set [8] deals with T2, Bile acid receptor (Rattus norvegicus) (UniProt Q62735).
T2 sequence (whole entry): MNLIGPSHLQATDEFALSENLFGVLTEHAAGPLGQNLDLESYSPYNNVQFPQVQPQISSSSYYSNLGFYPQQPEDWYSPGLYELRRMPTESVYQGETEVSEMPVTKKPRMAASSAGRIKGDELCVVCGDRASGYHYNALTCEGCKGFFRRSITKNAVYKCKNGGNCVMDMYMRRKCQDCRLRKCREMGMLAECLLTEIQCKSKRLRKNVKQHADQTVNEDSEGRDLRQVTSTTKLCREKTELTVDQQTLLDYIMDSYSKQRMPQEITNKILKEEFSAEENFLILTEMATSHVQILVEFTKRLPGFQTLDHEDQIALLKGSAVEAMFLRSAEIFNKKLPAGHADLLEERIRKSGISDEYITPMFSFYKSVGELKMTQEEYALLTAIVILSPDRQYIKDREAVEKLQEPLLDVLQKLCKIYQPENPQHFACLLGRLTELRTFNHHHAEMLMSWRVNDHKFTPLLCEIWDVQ
Nature of the data set: Agonist activity at FXR in rat primary hepatocytes assessed as increase in SHP mRNA expression at 50 uM. The data set is classed as cell-based.

Data set [9] relates to Mus musculus. The data set is described as follows: Induction of FXR activation in C57BL/6 mouse ileum assessed as increase in FXR-mediated Shp mRNA expression at 100 mg/kg, ig for 5 days by PCR method. The data set is classed as functional, organism-based.
Data set [10] in a line: Apparent permeability from apical side to basolateral side in human Caco2 cells at 50 uM by LC-MS/MS method. The data set is classed as ADME, cell-based. The conditions noted are these: Caco-2. A general note: Caco-2 monolayers are a common model of the intestinal barrier.
The test system of data set [11] is Mus musculus. Nature of the data set: Effect on FXR activation in C57BL/6 mouse kidney assessed as increase in FXR-mediated Shp mRNA expression at 100 mg/kg, ig for 5 days by PCR method. In kind it is organism-based. To be noted: in vivo, po, 120 h.
Data set [12] relates to Mus musculus. The data set is described as follows: Effect on FXR activation in C57BL/6 mouse liver assessed as increase in FXR-mediated Shp mRNA expression at 100 mg/kg, ig for 5 days by PCR method. To be noted: in vivo, po, 120 h. In kind it is organism-based.
Another data set deals with Caco-2. Nature of the data set: Cytotoxicity against human Caco2 cells at 100 uM incubated for 24 hrs by MTT assay. The conditions noted are these: caco-2, 24 h. The data set is classed as cell-based. (Tetrazolium assays rely on reduction of a dye to a coloured formazan, in cell work by metabolically active cells.)
Data set [13] can be described thus: Apparent permeability from basolateral to apical side in human Caco2 cells at 20 uM by LC-MS/MS method. To be noted: Caco-2. In kind it is ADME, cell-based.
The nature of data set [14]: Drug uptake in human Caco2 cells at 20 and 50 uM by LC-MS/MS method after 3 hrs. In kind it is ADME, cell-based. To be noted: caco-2, 3 h.
The nature of data set [15]: Apparent permeability from basolateral to apical side in human Caco2 cells at 50 uM by LC-MS/MS method. In kind it is ADME, cell-based. The conditions noted are these: Caco-2.
A further data set has as its system Intestine. Nature of the data set: Drug accumulation in C57BL/6 mouse intestine assessed as drug adherence to intestinal wall at 100 mg/kg, ig for 5 days by LC-MS/MS method. In kind it is ADME, organism-based. The conditions noted are these: in vivo, po, 120 h.
The target of the next data set is T3, Bile acid receptor (Homo sapiens, UniProt Q96RI1).
T3 sequence (Q96RI1 whole entry): T1 sequence (whole entry)
Nature of the data set: Binding affinity to FXR (unknown origin).

Data set [16] relates to Mus musculus. Nature of the data set: Effect on FXR mRNA expression in C57BL/6 mouse kidney at 100 mg/kg, ig for 5 days by PCR method. The data set is classed as ADME, organism-based. To be noted: in vivo, po, 120 h.
The nature of data set [17]: Apparent permeability from apical side to basolateral side in human Caco2 cells at 20 uM by LC-MS/MS method. In kind it is ADME, cell-based. To be noted: Caco-2.
Data set [18] concerns Mus musculus. Nature of the data set: Effect on FXR mRNA expression in C57BL/6 mouse liver at 100 mg/kg, ig for 5 days by PCR method. To be noted: in vivo, po, 120 h. In kind it is ADME, organism-based.
The nature of data set [19]: Efflux ratio in human Caco2 cells at 20 uM by LC-MS/MS method. The data set is classed as ADME, cell-based. To be noted: Caco-2.
The subject of data set [20] is Mus musculus. The data set is described as follows: Effect on FXR mRNA expression in C57BL/6 mouse duodenum at 100 mg/kg, ig for 5 days by PCR method. The data set is classed as ADME, organism-based. The conditions noted are these: in vivo, po, 120 h.
Data set [21] can be described thus: Efflux ratio in human Caco2 cells at 50 uM by LC-MS/MS method. In kind it is ADME, cell-based. To be noted: Caco-2.
Data set [22] addresses T2, Bile acid receptor (Rattus norvegicus). The data set is described as follows: Agonist activity at FXR in rat primary hepatocytes assessed as increase in BSEP mRNA expression at 50 uM. The data set is classed as cell-based.
Data set [23] concerns Mus musculus. Nature of the data set: Induction of FXR activation in C57BL/6 mouse ileum assessed as increase in FXR-mediated Bsep mRNA expression at 100 mg/kg, ig for 5 days by PCR method. In kind it is functional, organism-based.
Data set [24] concerns the target T1, Bile acid receptor (Homo sapiens). Nature of the data set: Agonist activity at FXR in human Hepg2 cells. In kind it is cell-based.
In data set [25] the target is T2, Bile acid receptor (Rattus norvegicus). Nature of the data set: Agonist activity at FXR in rat primary hepatocytes assessed as reduction in CYP7A1 mRNA expression at 50 uM. The data set is classed as cell-based.
The target of data set [26] is T1, Bile acid receptor (Homo sapiens). The data set is described as follows: Binding affinity to FXR (unknown origin) relative to fexaramine.
A further data set concerns Serum. The data set is described as follows: Drug accumulation in C57BL/6 mouse serum at 100 mg/kg, ig for 5 days by LC-MS/MS method. The conditions noted are these: in vivo, po, 120 h. In kind it is ADME, organism-based.
For the next data set, the system named is Jejunum. The data set is described as follows: Drug accumulation in C57BL/6 mouse jejunum at 100 mg/kg, ig for 5 days by LC-MS/MS method. In kind it is ADME, organism-based. To be noted: in vivo, po, 120 h.
The next data set concerns Liver. The data set is described as follows: Drug accumulation in C57BL/6 mouse liver at 100 mg/kg, ig for 5 days by LC-MS/MS method. The conditions noted are these: in vivo, po, 120 h. In kind it is ADME, organism-based.
The nature of data set [27]: Drug uptake in human Caco2 cells at 20 and 50 uM by LC-MS/MS method relative to initial level. In kind it is ADME, cell-based. The conditions noted are these: caco-2, TDE = time-dependent effect.
Data set [28] deals with T2, Bile acid receptor (Rattus norvegicus). The data set is described as follows: Agonist activity at FXR in rat primary hepatocytes. The data set is classed as cell-based.

The structures appear in SMILES notation. The source made the active and inactive calls. The calls are words filed in the database; no cut-off is given here.

Regarding `CNc1ccc2cc(C(=O)N(Cc3ccc(-c4ccc(N(C)C)cc4)cc3)c3cccc(/C=C/C(=O)OC)c3)ccc2c1`, in [1], the solubility entry is on record as “Insoluble”. Also, the outcome in data set [2] and in data set [24] was inactive. The Drug uptake result (with Ileum; in data set [4]; in data set [14]; in the data set with Intestine) was “Active” each time. Also, the result (with Mus musculus [3]; with Mus musculus [5]; in data set [8]; with Mus musculus [9]; in data set [22]; in the data set with Mus musculus [23]) was Active. For the same molecule, in data set [25], the result was Active. Moreover, the Activity result in the data set on Mus musculus [6], in the data set with Mus musculus [7], with Mus musculus [11], with Mus musculus [12], in the data set on Caco-2 and with Mus musculus [16] was “Non-Toxic” throughout. For the same molecule, the Activity result in the data set with Mus musculus [18] and in the data set with Mus musculus [20] was “Non-Toxic” each time. Also, the Papp A→B at 50 µM in data set [10] stood at 976 nm/s. In addition, the Papp B→A at 20 µM in [13] is 66.2 nm/s. In addition, in data set [15], the Papp B→A at 50 µM is 750 nm/s. Also, the Kd on Bile acid receptor was 48.7 µM. Moreover, the Papp A→B at 20 µM in data set [17] came to 187 nm/s. In addition, the efflux ratio at 20 µM in [19] was 0.35. Moreover, in [21], the efflux ratio at 50 µM came out at 0.77. In data set [26], the Ratio worked out at 2000.
Consider `COC(=O)/C=C/c1cccc(N(Cc2ccc(-c3ccc(N(C)C)cc3)cc2)C(=O)C2CCCCC2)c1` [FEXARAMINE], for which the Drug uptake result is recorded as “Active” with Ileum; “Active” in data set [4]; “Active” with Serum; “Active” in the data set on Jejunum; “Active” in the data set on Liver; “Tde” in data set [27]. In addition, the result with Mus musculus [5] and with Mus musculus [23] was Active. Further, the Papp A→B at 50 µM in [10] stood at 7620 nm/s. The Papp B→A at 20 µM in [13] is 240 nm/s. In addition, the Papp B→A at 50 µM in [15] amounted to 8730 nm/s. Moreover, the Papp A→B at 20 µM in [17] came out at 277 nm/s. In [19], the efflux ratio at 20 µM stood at 0.87. In addition, the efflux ratio at 50 µM in data set [21] amounted to 1.14.
`COC(=O)/C=C/c1cccc(N(CC2CCCCC2)C(=O)c2ccc3cc(N(C)C)ccc3c2)c1`: the result in [2], in [28] and in [24] was inactive.
With `CNc1ccc2cc(C(=O)N(CC3CCCCC3)c3cccc(/C=C/C(=O)OC)c3)ccc2c1`, the outcome in data set [2], in data set [28] and in data set [24] was inactive.
Take `COC(=O)/C=C/c1cccc(N(Cc2ccc(-c3ccc(N(C)C)cc3)cc2)C(=O)c2ccc3cc(N(C)C)ccc3c2)c1`: the result in data set [2] and in [24] was inactive. Besides, the result in data set [8], in data set [22] and in [25] was Active.
